Some results are limits rather than exact numbers.

For this experiment, the target named is PRC2 complex (EZH2 Y641F/EED/SUZ12/RbAp48/AEBP2) (Homo sapiens (Human), UniProt Q15910, Y641F). The experiment can be described thus: Activity of a compound to PRC2 complex (EZH2 Y641F), HTRF. To be noted: read-out: IC50 (EZH2_Y641F); EZH2 Y641F PRC2 complex, HTRF; class symbols.
PRC2 complex (EZH2 Y641F/EED/SUZ12/RbAp48/AEBP2), sequence (Q15910 whole entry Y641F): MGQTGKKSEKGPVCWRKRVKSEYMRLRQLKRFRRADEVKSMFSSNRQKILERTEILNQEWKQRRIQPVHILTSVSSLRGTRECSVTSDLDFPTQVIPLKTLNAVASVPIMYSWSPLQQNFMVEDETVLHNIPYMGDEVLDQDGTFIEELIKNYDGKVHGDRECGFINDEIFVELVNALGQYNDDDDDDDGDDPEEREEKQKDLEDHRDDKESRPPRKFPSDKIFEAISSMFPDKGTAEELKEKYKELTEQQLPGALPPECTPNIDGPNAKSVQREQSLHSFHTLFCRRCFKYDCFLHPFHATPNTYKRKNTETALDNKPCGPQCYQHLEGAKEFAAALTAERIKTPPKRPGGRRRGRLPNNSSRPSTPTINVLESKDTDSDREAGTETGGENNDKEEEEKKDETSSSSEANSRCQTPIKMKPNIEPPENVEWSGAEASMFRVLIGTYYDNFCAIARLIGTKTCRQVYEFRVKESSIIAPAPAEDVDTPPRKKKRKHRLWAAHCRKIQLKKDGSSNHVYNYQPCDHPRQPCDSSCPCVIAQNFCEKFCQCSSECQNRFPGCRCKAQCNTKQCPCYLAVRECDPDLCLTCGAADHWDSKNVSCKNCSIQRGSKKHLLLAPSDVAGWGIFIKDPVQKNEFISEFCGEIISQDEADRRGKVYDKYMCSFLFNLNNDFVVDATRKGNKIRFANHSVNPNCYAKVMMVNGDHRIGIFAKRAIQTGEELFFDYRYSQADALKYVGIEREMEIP
PRC2 complex (EZH2 Y641F/EED/SUZ12/RbAp48/AEBP2), sequence (O75530 whole entry partner): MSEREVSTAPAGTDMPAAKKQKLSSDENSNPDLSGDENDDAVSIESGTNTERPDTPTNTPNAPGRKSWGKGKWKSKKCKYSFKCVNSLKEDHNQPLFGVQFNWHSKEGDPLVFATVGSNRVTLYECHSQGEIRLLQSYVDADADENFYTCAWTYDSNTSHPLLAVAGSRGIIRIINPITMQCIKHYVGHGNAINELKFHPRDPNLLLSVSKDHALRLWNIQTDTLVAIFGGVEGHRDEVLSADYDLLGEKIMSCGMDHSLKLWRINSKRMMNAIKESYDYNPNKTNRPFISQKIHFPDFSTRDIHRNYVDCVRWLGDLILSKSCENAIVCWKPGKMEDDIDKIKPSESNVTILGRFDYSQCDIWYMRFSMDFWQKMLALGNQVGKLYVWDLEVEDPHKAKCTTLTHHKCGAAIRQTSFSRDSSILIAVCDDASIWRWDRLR
PRC2 complex (EZH2 Y641F/EED/SUZ12/RbAp48/AEBP2), sequence (Q15022 whole entry partner): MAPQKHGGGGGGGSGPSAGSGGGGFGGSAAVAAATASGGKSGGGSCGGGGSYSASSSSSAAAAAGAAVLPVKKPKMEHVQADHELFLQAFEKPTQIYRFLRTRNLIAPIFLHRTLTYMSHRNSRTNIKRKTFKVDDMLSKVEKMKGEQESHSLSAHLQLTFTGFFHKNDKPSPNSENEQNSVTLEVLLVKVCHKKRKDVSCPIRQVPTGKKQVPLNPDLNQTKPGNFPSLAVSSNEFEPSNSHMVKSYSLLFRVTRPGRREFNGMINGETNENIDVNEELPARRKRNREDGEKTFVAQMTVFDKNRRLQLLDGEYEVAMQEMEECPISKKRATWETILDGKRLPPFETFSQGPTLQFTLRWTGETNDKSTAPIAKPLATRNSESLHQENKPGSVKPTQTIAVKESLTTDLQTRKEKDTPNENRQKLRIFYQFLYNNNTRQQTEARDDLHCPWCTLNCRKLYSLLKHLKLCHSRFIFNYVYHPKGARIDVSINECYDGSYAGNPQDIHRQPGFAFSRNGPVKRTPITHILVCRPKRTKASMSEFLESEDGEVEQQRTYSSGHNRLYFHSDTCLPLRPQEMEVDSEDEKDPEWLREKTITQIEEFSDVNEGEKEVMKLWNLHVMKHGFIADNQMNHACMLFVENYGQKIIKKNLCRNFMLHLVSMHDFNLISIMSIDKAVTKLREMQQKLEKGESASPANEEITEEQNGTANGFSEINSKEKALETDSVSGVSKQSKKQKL
PRC2 complex (EZH2 Y641F/EED/SUZ12/RbAp48/AEBP2), sequence (Q09028 whole entry partner): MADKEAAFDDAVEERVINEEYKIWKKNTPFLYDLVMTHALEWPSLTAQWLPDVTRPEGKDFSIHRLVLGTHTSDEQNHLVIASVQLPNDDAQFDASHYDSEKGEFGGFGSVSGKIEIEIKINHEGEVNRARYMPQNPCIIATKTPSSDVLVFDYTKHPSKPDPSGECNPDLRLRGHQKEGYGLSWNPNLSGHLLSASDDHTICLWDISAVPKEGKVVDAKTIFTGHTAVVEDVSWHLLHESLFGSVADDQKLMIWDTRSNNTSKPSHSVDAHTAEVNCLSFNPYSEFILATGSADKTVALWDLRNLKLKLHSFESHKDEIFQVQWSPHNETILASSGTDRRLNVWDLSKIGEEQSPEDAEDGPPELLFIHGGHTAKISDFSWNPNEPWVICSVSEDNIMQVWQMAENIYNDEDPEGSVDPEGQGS
PRC2 complex (EZH2 Y641F/EED/SUZ12/RbAp48/AEBP2), sequence (Q6ZN18 whole entry partner): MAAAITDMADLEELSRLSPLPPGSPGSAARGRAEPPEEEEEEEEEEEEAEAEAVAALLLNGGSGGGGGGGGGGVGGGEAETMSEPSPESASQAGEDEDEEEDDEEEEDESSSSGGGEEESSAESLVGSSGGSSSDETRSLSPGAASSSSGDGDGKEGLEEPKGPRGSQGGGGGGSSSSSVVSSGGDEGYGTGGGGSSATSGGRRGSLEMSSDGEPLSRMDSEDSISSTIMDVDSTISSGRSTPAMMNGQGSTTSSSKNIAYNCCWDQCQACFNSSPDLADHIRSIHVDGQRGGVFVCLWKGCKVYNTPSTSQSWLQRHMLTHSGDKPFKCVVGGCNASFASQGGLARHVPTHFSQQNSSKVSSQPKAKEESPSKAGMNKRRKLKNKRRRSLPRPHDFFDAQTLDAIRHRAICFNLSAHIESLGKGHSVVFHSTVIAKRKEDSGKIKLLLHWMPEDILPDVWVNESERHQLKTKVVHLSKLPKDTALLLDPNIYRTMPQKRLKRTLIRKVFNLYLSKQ
Description: Determination of the Activity of a Compound to PRC2 Complex (EZH2Y641F):
Detection Method: Homogeneous Time-Resolved Fluorescence (HTRF)
Reaction was conducted in darkness at room temperature for 4 h. […] The IC50 values of the compounds were calculated using SoftMax Pro 5.4.1 software.
Consider “1-(2-chloropyridin-4-yl)-N-((4-methoxy-6-methyl-2-oxo-1,2-dihydropyridin-3-yl)methyl)-6-methyl-5-(1-(4-(2,2,2-trifluoroethyl)piperazin-1-yl)ethyl)indolizine-7-carboxamide [Compound 167]”, for which the IC50 was under 100 nM.

Take `Cc1cc(C)c(CNC(=O)c2cc3c(-c4ccc(N)nc4)ccn3c([C@H](C)N3CCN(CC(F)(F)F)CC3)c2C)c(=O)[nH]1` (single isomer, unassigned) [Compound 160, (S)-1-(6-aminopyridin-3-yl)-N-((4,6-dimethyl-2-oxo-1,2-dihydropyridin-3-yl)methyl)-6-methyl-5-(1-(4-(2,2,2-trifluoroethyl)piperazin-1-yl)ethyl)indolizine-7-carboxamide or (R) 1-(6-aminopyridin-3-yl)-N-((4,6-dimethyl-2-oxo-1,2-dihydropyridin-3-yl)methyl)-6-methyl-5-(1-(4-(2,2,2-trifluoroethyl)piperazin-1-yl)ethyl)indolizine-7-carboxamide]: the IC50 was under 100 nM.

Consider `CNc1ccc(-c2ccn3c([C@H](C)N4CCN(CC(F)(F)F)CC4)c(C)c(C(=O)NCc4c(OC)cc(C)[nH]c4=O)cc23)cn1` (single isomer, unassigned) [Compound 164, (S)—N-((4-methoxy-6-methyl-2-oxo-1,2-dihydropyridin-3-yl)methyl)-6-methyl-1-(6-(methylamino)pyridin-3-yl)-5-(1-(4-(2,2,2-trifluoroethyl)piperazin-1-yl)ethyl)indolizine-7-formamide or (R)—N-((4-methoxy-6-methyl-2-oxo-1,2-dihydropyridin-3-yl)methyl)-6-methyl-1-(6-(methylamino)pyridin-3-yl)-5-(1-(4-(2,2,2-trifluoroethyl)piperazin-1-yl)ethyl)indolizine-7-formamide], for which the IC50 lay in the range of 100 to 1000 nM.

Take `CNc1ccc(-c2ccn3c([C@H](C)N4CCN(CC(F)(F)F)CC4)c(C)c(C(=O)NCc4c(OC)cc(C)[nH]c4=O)cc23)cn1` (single isomer, unassigned) [Compound 165, (S)—N-((4-methoxy-6-methyl-2-oxo-1,2-dihydropyridin-3-yl)methyl)-6-methyl-1-(6-(methylamino)pyridin-3-yl)-5-(1-(4-(2,2,2-trifluoroethyl)piperazin-1-yl)ethyl)indolizine-7-formamide or (R)—N-((4-methoxy-6-methyl-2-oxo-1,2-dihydropyridin-3-yl)methyl)-6-methyl-1-(6-(methylamino)pyridin-3-yl)-5-(1-(4-(2,2,2-trifluoroethyl)piperazin-1-yl)ethyl)indolizine-7-formamide]: the IC50 was under 100 nM.

With `COc1cc(C)[nH]c(=O)c1CNC(=O)c1cc2c(-c3ccnc(Cl)c3)ccn2c([C@H](C)N2CCN(CC(F)(F)F)CC2)c1C` (single isomer, unassigned) [Compound 168, (S)-1-(2-chloropyridin-4-yl)-N-((4-methoxy-6-methyl-2-oxo-1,2-dihydropyridine-3-yl)methyl)-6-methyl-5-(1-(4-(2,2,2-trifluoroethyl)piperazin-1-yl)ethyl)indolizine-7-carboxamide or (R) 1-(2-chloropyridin-4-yl)-N-((4-methoxy-6-methyl-2-oxo-1,2-dihydropyridine-3-yl)methyl)-6-methyl-5-(1-(4-(2,2,2-trifluoroethyl)piperazin-1-yl)ethyl)indolizine-7-carboxamide], the concentration for half-maximal inhibition (IC50) fell in the range of 100 to 1000 nM.

Take `COc1cc(C)[nH]c(=O)c1CNC(=O)c1cc2c(-c3ccnc(Cl)c3)ccn2c([C@H](C)N2CCN(CC(F)(F)F)CC2)c1C` (single isomer, unassigned) [Compound 169, (S)-1-(2-chloropyridin-4-yl)-N-((4-methoxy-6-methyl-2-oxo-1,2-dihydropyridine-3-yl)methyl)-6-methyl-5-(1-(4-(2,2,2-trifluoroethyl)piperazin-1-yl)ethyl)indolizine-7-carboxamide or (R) 1-(2-chloropyridin-4-yl)-N-((4-methoxy-6-methyl-2-oxo-1,2-dihydropyridine-3-yl)methyl)-6-methyl-5-(1-(4-(2,2,2-trifluoroethyl)piperazin-1-yl)ethyl)indolizine-7-carboxamide]: the half-maximal inhibitory concentration (IC50) is under 100 nM.

As for `COc1cc(C)[nH]c(=O)c1CNC(=O)c1cc2c(-c3ccnc(N(C)C)c3)ccn2c([C@H](C)N2CCN(CC(F)(F)F)CC2)c1C` (single isomer, unassigned) [Compound 171, (S)-1-(2-(dimethylamino)pyridin-4-yl)-N-((4-methoxy-6-methyl-2-oxo-1,2-dihydropyridine-3-yl)methyl)-6-methyl-5-(1-(4-(2,2,2-trifluoroethyl)piperazin-1-yl)ethyl)indolizine-7-carboxamide or (R) 1-(2-(dimethylamino)pyridin-4-yl)-N-((4-methoxy-6-methyl-2-oxo-1,2-dihydropyridine-3-yl)methyl)-6-methyl-5-(1-(4-(2,2,2-trifluoroethyl)piperazin-1-yl)ethyl)indolizine-7-carboxamide], the IC50 was under 100 nM.

`COc1cc(C)[nH]c(=O)c1CNC(=O)c1cc2c(-c3ccnc(N(C)C)c3)ccn2c([C@H](C)N2CCN(CC(F)(F)F)CC2)c1C` (single isomer, unassigned) [Compound 172, (S)-1-(2-(dimethylamino)pyridin-4-yl)-N-((4-methoxy-6-methyl-2-oxo-1,2-dihydropyridine-3-yl)methyl)-6-methyl-5-(1-(4-(2,2,2-trifluoroethyl)piperazin-1-yl)ethyl)indolizine-7-carboxamide or (R) 1-(2-(dimethylamino)pyridin-4-yl)-N-((4-methoxy-6-methyl-2-oxo-1,2-dihydropyridine-3-yl)methyl)-6-methyl-5-(1-(4-(2,2,2-trifluoroethyl)piperazin-1-yl)ethyl)indolizine-7-carboxamide]: the IC50 lay in the range of 100 to 1000 nM.

As for `COc1cc(C)[nH]c(=O)c1CNC(=O)c1cc2c(-c3cc(C)nc(C)c3)ccn2c([C@H](C)N2CCN(CC(F)(F)F)CC2)c1C` (single isomer, unassigned) [Compound 174, (S)-1-(2,6-dimethylpyridin-4-yl)-N-((4-methoxy-6-methyl-2-oxo-1,2-dihydropyridine-3-yl)methyl)-6-methyl-5-(1-(4-(2,2,2-trifluoroethyl)piperazin-1-yl)ethyl)indolizine-7-carboxamide or (R) 1-(2,6-dimethylpyridin-4-yl)-N-((4-methoxy-6-methyl-2-oxo-1,2-dihydropyridine-3-yl)methyl)-6-methyl-5-(1-(4-(2,2,2-trifluoroethyl)piperazin-1-yl)ethyl)indolizine-7-carboxamide], the IC50 was under 100 nM.

For the compound `COc1cc(C)[nH]c(=O)c1CNC(=O)c1cc2c(-c3cc(C)nc(C)c3)ccn2c([C@H](C)N2CCN(CC(F)(F)F)CC2)c1C` (single isomer, unassigned) [Compound 175, (S)-1-(2,6-dimethylpyridin-4-yl)-N-((4-methoxy-6-methyl-2-oxo-1,2-dihydropyridine-3-yl)methyl)-6-methyl-5-(1-(4-(2,2,2-trifluoroethyl)piperazin-1-yl)ethyl)indolizine-7-carboxamide or (R) 1-(2,6-dimethylpyridin-4-yl)-N-((4-methoxy-6-methyl-2-oxo-1,2-dihydropyridine-3-yl)methyl)-6-methyl-5-(1-(4-(2,2,2-trifluoroethyl)piperazin-1-yl)ethyl)indolizine-7-carboxamide], the IC50 was in the range of 100 to 1000 nM.

On to `COc1cc(C)[nH]c(=O)c1CNC(=O)c1cc2c(-c3ccc(C)nc3C)ccn2c([C@H](C)N2CCN(CC(F)(F)F)CC2)c1C` (single isomer, unassigned) [Compound 177, (S)-1-(2,6-dimethylpyridin-3-yl)-N-((4-methoxy-6-methyl-2-oxo-1,2-dihydropyridine-3-yl)methyl)-6-methyl-5-(1-(4-(2,2,2-trifluoroethyl)piperazin-1-yl)ethyl)indolizine-7-carboxamide or (R) 1-(2,6-dimethylpyridin-3-yl)-N-((4-methoxy-6-methyl-2-oxo-1,2-dihydropyridine-3-yl)methyl)-6-methyl-5-(1-(4-(2,2,2-trifluoroethyl)piperazin-1-yl)ethyl)indolizine-7-carboxamide], for which the IC50 was under 100 nM.

As to `COc1cc(C)[nH]c(=O)c1CNC(=O)c1cc2c(-c3ccc(C)nc3C)ccn2c([C@H](C)N2CCN(CC(F)(F)F)CC2)c1C` (single isomer, unassigned) [Compound 178, (S)-1-(2,6-dimethylpyridin-3-yl)-N-((4-methoxy-6-methyl-2-oxo-1,2-dihydropyridine-3-yl)methyl)-6-methyl-5-(1-(4-(2,2,2-trifluoroethyl)piperazin-1-yl)ethyl)indolizine-7-carboxamide or (R) 1-(2,6-dimethylpyridin-3-yl)-N-((4-methoxy-6-methyl-2-oxo-1,2-dihydropyridine-3-yl)methyl)-6-methyl-5-(1-(4-(2,2,2-trifluoroethyl)piperazin-1-yl)ethyl)indolizine-7-carboxamide], the IC50 lay in the range of 100 to 1000 nM.

Turning to `CNc1cc(-c2ccn3c([C@H](C)N4CCN(CC(F)(F)F)CC4)c(C)c(C(=O)NCc4c(OC)cc(C)[nH]c4=O)cc23)ccn1` (single isomer, unassigned) [Compound 181, (S)—N-((4-methoxy-6-methyl-2-oxo-1,2-dihydropyridin-3-yl)methyl)-6-methyl-1-(2-(methylamino)pyridin-4-yl)-5-(1-(4-(2,2,2-trifluoroethyl)piperazin-1-yl)ethyl)indolizine-7-formamide or (R)—N-((4-methoxy-6-methyl-2-oxo-1,2-dihydropyridin-3-yl)methyl)-6-methyl-1-(2-(methylamino)pyridin-4-yl)-5-(1-(4-(2,2,2-trifluoroethyl)piperazin-1-yl)ethyl)indolizine-7-formamide], the IC50 is under 100 nM.

A word on the IC50: it is the midpoint of a concentration-inhibition curve.

Source of the values: patent US10968215B2 (SHANGHAI HAIHE PHARMACEUTICAL CO., LTD., priority 2016, dated 2021).
